Reference: patent publication US9556183B2, “Substituted pyrazolylpyrazole derivative and use of same as herbicide” (KYOYU AGRI CO., LTD., priority 2013, dated 2017)

Assays:
[1] = test system: Echinochloa crus-galli; test: Paddy herbicidal activity test; type: in vivo; details: irrigated paddy pot, treated at 3.5 leaf stage of Echinochloa crus-galli, 30 days
Procedure: (§1) Rice paddy soil was filled into a 1/10000 are pot followed by the addition of suitable amounts of water and chemical fertilizer, kneading, seeding with Echinochloa crus-galli, Monochoria vaginalis and Scirpus juncoides and maintaining in an irrigated state at a water depth of 3 cm. Wettable powder of Target Compound (I) shown in Table 1 prepared in compliance with the preparation examples were diluted with a suitable amount of water, rice plants in the 2.0 leaf stage were transplanted during 3.5 leaf stage of Echinochloa crus-galli, and treated by dropping in chemical in the prescribed amount per are using a pipette. After treating for 30 days in a glass greenhouse at an average atmospheric temperature of 30° C., the herbicidal efficacy thereof was investigated. Evaluation of herbicidal efficacy was carried out by comparing growth inhibition rate (%) with an untreated group, while evaluation of phytotoxicity was carried out by comparing growth inhibition rate (%) with the state of a complete eradication group, and were evaluated at 11 levels indicated below. [table]

[2] = test system: Monochoria vaginalis; test: Paddy herbicidal activity test; type: in vivo; details: irrigated paddy pot, 30 days
Procedure: as §1

[3] = test system: Scirpus juncoides; test: Paddy herbicidal activity test; type: in vivo; details: irrigated paddy pot, 30 days
Procedure: as §1

[4] = test system: Rice plants; test: Paddy herbicidal activity test, phytotoxicity to transplanted rice; type: in vivo; details: rice transplanted at 2.0 leaf stage, 30 days
Procedure: as §1

[5] = test system: Amaranthus retroflexus; test: Farming soil treatment test; type: in vivo; details: soil surface spray prior to weed growth, 30 days
Procedure: (§2) Evaluation of herbicidal efficacy was carried out by comparing growth inhibition rate (%) with an untreated group, while evaluation of phytotoxicity was carried out by comparing growth inhibition rate (%) with the state of a complete eradication group, and were evaluated at 11 levels indicated below. [table] Field soil was filled into a 1/6000 are pot followed by seeding with Digitaria ciliaris, Chenopodium album and Amaranthus retroflexus and covering with soil. Wettable powder of compounds of formula (I) shown in Table 1 prepared in compliance with the preparation examples were diluted with water to the prescribed amount of chemical and uniformly sprayed onto each soil surface layer using 10 liters of sprayed water per are prior to weed growth following seeding. After treating for 30 days in a glass greenhouse at an average atmospheric temperature of 30° C., the herbicidal efficacy thereof was investigated. Evaluation of herbicidal efficacy was carried out in the same manner as the above-mentioned Test Example 1.

[6] = test system: Chenopodium album; test: Farming soil treatment test; type: in vivo; details: soil surface spray prior to weed growth, 30 days
Procedure: as §2

[7] = test system: Digitaria ciliaris; test: Farming soil treatment test; type: in vivo; details: soil surface spray prior to weed growth, 30 days
Procedure: as §2

[8] = test system: Amaranthus retroflexus; test: Weed foliar treatment test; type: in vivo; details: foliar spray, 3 weeks
Procedure: (§3) Evaluation of herbicidal efficacy was carried out by comparing growth inhibition rate (%) with an untreated group, while evaluation of phytotoxicity was carried out by comparing growth inhibition rate (%) with the state of a complete eradication group, and were evaluated at 11 levels indicated below. [table] Soil was filled into a 1/6000 are pot followed by seeding with Digitaria ciliaris, Chenopodium album and Amaranthus retroflexus, covering with soil, and cultivating in a glass greenhouse at an average atmospheric temperature of 25° C. Wettable powder of Target Compound (I) shown in Table 1 prepared in compliance with the preparation examples were diluted with water to the prescribed amount of chemical and uniformly sprayed onto the weeds using 15 liters of sprayed water per are when Digitaria ciliaris had grown to the 1.0 to 2.0 leaf stage. After treating for 3 weeks in a glass greenhouse at an average atmospheric temperature of 25° C., the herbicidal efficacy thereof was investigated, Evaluation of herbicidal efficacy was carried out in the same manner as the above-mentioned Test Example 1.

[9] = test system: Chenopodium album; test: Weed foliar treatment test; type: in vivo; details: foliar spray, 3 weeks
Procedure: as §3

[10] = test system: Digitaria ciliaris; test: Weed foliar treatment test; type: in vivo; details: foliar spray at 1.0 to 2.0 leaf stage of Digitaria ciliaris, 3 weeks
Procedure: as §3

Row | Structure (SMILES) | herbicidal efficacy (growth inhibition rate level) Echinochloa crus-galli ([1]; 1g a.i./10a) | herbicidal efficacy (growth inhibition rate level) Echinochloa crus-galli ([1]; 5g a.i./10a) | herbicidal efficacy (growth inhibition rate level) Monochoria vaginalis ([2]; 1g a.i./10a) | herbicidal efficacy (growth inhibition rate level) Monochoria vaginalis ([2]; 5g a.i./10a) | herbicidal efficacy (growth inhibition rate level) Scirpus juncoides ([3]; 1g a.i./10a) | herbicidal efficacy (growth inhibition rate level) Scirpus juncoides ([3]; 5g a.i./10a) | phytotoxicity (growth inhibition rate level) Rice plants ([4]; 1g a.i./10a) | phytotoxicity (growth inhibition rate level) Rice plants ([4]; 5g a.i./10a) | herbicidal efficacy (growth inhibition rate level) Amaranthus retroflexus ([5]; 5g a.i./10a) | herbicidal efficacy (growth inhibition rate level) Amaranthus retroflexus ([5]; 10g a.i./10a) | herbicidal efficacy (growth inhibition rate level) Chenopodium album ([6]; 5g a.i./10a) | herbicidal efficacy (growth inhibition rate level) Chenopodium album ([6]; 10g a.i./10a) | herbicidal efficacy (growth inhibition rate level) Digitaria ciliaris ([7]; 5g a.i./10a) | herbicidal efficacy (growth inhibition rate level) Digitaria ciliaris ([7]; 10g a.i./10a) | herbicidal efficacy (growth inhibition rate level) Amaranthus retroflexus ([8]; 5g a.i./10a) | herbicidal efficacy (growth inhibition rate level) Amaranthus retroflexus ([8]; 10g a.i./10a) | herbicidal efficacy (growth inhibition rate level) Chenopodium album ([9]; 5g a.i./10a) | herbicidal efficacy (growth inhibition rate level) Chenopodium album ([9]; 10g a.i./10a) | herbicidal efficacy (growth inhibition rate level) Digitaria ciliaris ([10]; 5g a.i./10a) | herbicidal efficacy (growth inhibition rate level) Digitaria ciliaris ([10]; 10g a.i./10a) | also measured
1 | N#Cc1cnn(-c2nn3c(c2Cl)CCCC3)c1NCC1CC1 [Compound 1, 1-(3-chloro-4,5,6,7-tetrahydropyrazolo[1,5-a]pyridin-2-yl)-5-(cyclopropylmethylamino)pyrazole-4-carbonitrile] | 9 (9: 90% to less than 100%) | 10 (10: 100%) | 8 (8: 80% to less than 90%) | 8 (8: 80% to less than 90%) | 8 (8: 80% to less than 90%) | 9 (9: 90% to less than 100%) | 0 (0 (exponent): 0% to less than 10% (growth inhibition rate)) | 1 (1: 10% to less than 20%) | 10 (10: 100%) | 10 (10: 100%) | 10 (10: 100%) | 10 (10: 100%) | 10 (10: 100%) | 10 (10: 100%) | 10 (10: 100%) | 10 (10: 100%) | 10 (10: 100%) | 10 (10: 100%) | 10 (10: 100%) | 10 (10: 100%) | melting point: 165 to 166 °C
2 | N#Cc1cnn(-c2nn3c(c2Cl)CCCC3)c1N(CC1CC1(F)F)C(=O)C(F)(F)F (stereo not drawn) [Compound 186] | 10 (10: 100%) | 10 (10: 100%) | 9 (9: 90% to less than 100%) | 9 (9: 90% to less than 100%) | 9 (9: 90% to less than 100%) | 10 (10: 100%) | 0 (0 (exponent): 0% to less than 10% (growth inhibition rate)) | 1 (1: 10% to less than 20%) | 10 (10: 100%) | 10 (10: 100%) | 10 (10: 100%) | 10 (10: 100%) | 10 (10: 100%) | 10 (10: 100%) | 10 (10: 100%) | 10 (10: 100%) | 10 (10: 100%) | 10 (10: 100%) | 10 (10: 100%) | 10 (10: 100%) | 
3 | N#Cc1cnn(-c2nn3c(c2Cl)CCCC3)c1NC1CC1 [Control agent 4.84, reference compound] | 3 (3: 30% to less than 40%) | 5 (5: 50% to less than 60%) | 2 (2: 20% to less than 30%) | 3 (3: 30% to less than 40%) | 3 (3: 30% to less than 40%) | 4 (4: 40% to less than 50%) | 0 (0 (exponent): 0% to less than 10% (growth inhibition rate)) | 2 (2: 20% to less than 30%) | 6 (6: 60% to less than 70%) | 6 (6: 60% to less than 70%) | 6 (6: 60% to less than 70%) | 6 (6: 60% to less than 70%) | 5 (5: 50% to less than 60%) | 5 (5: 50% to less than 60%) | 6 (6: 60% to less than 70%) | 7 (7: 70% to less than 80%) | 6 (6: 60% to less than 70%) | 7 (7: 70% to less than 80%) | 5 (5: 50% to less than 60%) | 6 (6: 60% to less than 70%) | 
4 | N#Cc1cnn(-c2nn3c(c2Cl)CCCC3)c1NCC1CO1 (stereo not drawn) [Control agent 4.129, reference compound] | 1 (1: 10% to less than 20%) | 3 (3: 30% to less than 40%) | 0 (0 (exponent): 0% to less than 10% (growth inhibition rate)) | 0 (0 (exponent): 0% to less than 10% (growth inhibition rate)) | 3 (3: 30% to less than 40%) | 4 (4: 40% to less than 50%) | 1 (1: 10% to less than 20%) | 2 (2: 20% to less than 30%) | 6 (6: 60% to less than 70%) | 7 (7: 70% to less than 80%) | 6 (6: 60% to less than 70%) | 6 (6: 60% to less than 70%) | 4 (4: 40% to less than 50%) | 5 (5: 50% to less than 60%) | 7 (7: 70% to less than 80%) | 7 (7: 70% to less than 80%) | 6 (6: 60% to less than 70%) | 7 (7: 70% to less than 80%) | 4 (4: 40% to less than 50%) | 5 (5: 50% to less than 60%) | 
